Measurements taken from US5633437A, “Gene exhibiting resistance to acetolactate synthase inhibitor herbicides” (Sandoz Ltd., priority 1994, dated 1997).
Residue numbers refer to the chain shown, from its start. Where a name gives a salt, the structure may show the parent alone.

Key:
[1] = test system: R-XANST (resistant cocklebur biotype); assay: Herbicidal evaluation, post-emergence spray on resistant cocklebur; assay type: in vivo, cocklebur (Xanthium sp.)
Procedure: (§1) Seeds of S-XANST and R-XANST are planted one per pot in soil mix. Pots are placed on a heating mat and the soil temperature increased from about 65° F. to about 90° F. At the 2-3 leaf stage, plants are treated with test herbicides using a linear track laboratory sprayer calibrated to deliver 42.5 GPA. Plants are watered by subirrigation after herbicide application. Observations of percent control are made 21 days after herbicide application. The test ALS inhibitor herbicides are listed below including their chemical class:
(§2) The effect of the various ALS inhibitors against R-XANST and S-XANST is depicted in FIG. 5. The results are reported as % control wherein 100% injury is equal to complete control as determined by growth. All treatments are replicated four times in a randomized complete block design.
(§3) Additionally tests are preformed at much higher herbicide rates to determine the extent of resistance. […] Glean tested at 1.56 lb ai/A, a rate of 100 times field use, provided 88% injury to R-XANST. Pursuit provides 90% injury to R-XANST when used at 100 times the normal field rate, (6.25 lb ai/A).

[2] = target: T1, acetolactate synthase (ALS), resistant enzyme from R-XANST (Xanthium sp., UniProt Q41716); assay: ALS enzymatic evaluation, resistant enzyme isolated from R-XANST; assay type: biochemical; conditions: ALS from R-XANST leaves, 40% ammonium sulfate fraction; read-out: I50 (M) Resistant
T1 construct: mature chloroplast form
T1 sequence (Q41716 78-648): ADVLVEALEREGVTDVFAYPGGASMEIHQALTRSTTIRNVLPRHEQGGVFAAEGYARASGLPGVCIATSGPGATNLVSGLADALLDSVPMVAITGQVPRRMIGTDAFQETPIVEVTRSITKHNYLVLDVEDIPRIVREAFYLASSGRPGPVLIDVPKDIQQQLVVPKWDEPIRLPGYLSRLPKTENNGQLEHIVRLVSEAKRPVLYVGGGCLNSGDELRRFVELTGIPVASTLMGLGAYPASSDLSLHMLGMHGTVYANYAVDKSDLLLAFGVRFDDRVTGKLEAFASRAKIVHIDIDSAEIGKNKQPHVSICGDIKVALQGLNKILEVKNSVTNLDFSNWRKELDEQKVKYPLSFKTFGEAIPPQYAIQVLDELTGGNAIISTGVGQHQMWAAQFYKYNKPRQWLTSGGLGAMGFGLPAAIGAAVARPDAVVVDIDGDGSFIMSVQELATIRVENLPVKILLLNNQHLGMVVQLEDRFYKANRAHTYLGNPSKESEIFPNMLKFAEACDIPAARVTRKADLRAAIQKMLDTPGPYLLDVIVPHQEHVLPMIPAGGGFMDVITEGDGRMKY
Procedure: (§4) Cocklebur is grown in a greenhouse. Five grams of fresh green leaf tissue are ground to a powder in a mortar at the temperature of liquid nitrogen. The powder is extracted with 100 ml of buffer containing 50 mM N-[2-hydroxyethyl]piperazine-N'-[3-propanesulfonic acid], (EPPS); pH 7.2; 5 mM MgCl2; 2 mM EDTA; 1 mM valine; 1 mM leucine; 10% glycerol; 10 mM pyruvate; 5 mM Dithiothreitol; 1% polyvinyl polypyrrolidone (PVPP) and […] flavin adenine dinucleotide and filtered through cheesecloth. The filtrate was centrifuged at 15,000×g for 15 min.
(§5) The procedures used for the isolation of ALS from cocklebur are similar to those known in the art. The supernatant resulting from centrifugation of the crude extract is brought to 40% ammonium sulfate. The ammonium sulfate pellet is not frozen and is resuspended in standard buffer used for I50 determinations and then gel-filtered through the same buffer. This preparation is used for determinations of Km for pyruvate and I50. The Km is equal to the substrate concentration at which the initial reaction velocity is half maximal and also referred to as the Michaelis-Menten constant. The Km is determined using Lineweaver-Burke double reciporcial plots. I50 is the concentration in which 50% inhibition is observed and is determined from linear regression analysis of the linear portion of the dose/response curve.
(§6) The I50 values by various ALS inhibitors are determined on both sensitive enzymes isolated from S-XANST and resistant enzymes isolated from R-XANST and are reported in Table 1.

[3] = test system: acetolactate synthase (ALS), resistant enzyme from R-XANST; assay: as above; assay type: biochemical; conditions: ratio I50 resistant / I50 sensitive enzyme
Procedure: as §4, §5, §6

[4] = test system: S-XANST (susceptible cocklebur); assay: Herbicidal evaluation, post-emergence spray on susceptible cocklebur; assay type: in vivo, cocklebur (Xanthium sp.)
Procedure: as §1, §2, §3

[5] = target: T2, acetolactate synthase (ALS), sensitive enzyme from S-XANST (Xanthium sp., UniProt Q41717); assay: ALS enzymatic evaluation, sensitive enzyme isolated from S-XANST; assay type: biochemical, cocklebur (Xanthium sp.); conditions: ALS from S-XANST leaves, 40% ammonium sulfate fraction; read-out: I50 (M) Sensitive
T2 construct: mature chloroplast form
T2 sequence (Q41717 78-648): T1 sequence (Q41716 78-648) with L181F, H192Q, S445N, L475W
Procedure: as §4
as §5, with “I50 is the concentration in which 50% inhibition is observed and is determined from linear regression analysis of the linear portion of the dose/response curve.” left out
as §6

[6] = substrate: CC(=O)C(=O)O; assay: ALS enzymatic evaluation, resistant enzyme isolated from R-XANST; assay type: biochemical; conditions: other: R-XANST enzyme; Lineweaver-Burke plots; pH 7.2
Procedure: as §4
as §5, with “I50 is the concentration in which 50% inhibition is observed and is determined from linear regression analysis of the linear portion of the dose/response curve.” left out
as §6

With `CCc1cnc(C2=NC(C)(C(C)C)C(=O)N2)c(C(=O)O)c1` (single isomer, unassigned; (+)) [Imazethapyr, (+)-2-[4,5-dihydro-4-methyl-4-(1-methylethyl)-5-oxo-1H-imidazole-2-yl]-5-ethyl-3-pyridinecarboxylic acid] the “injury to R-XANST” value ([1]; 100 times the normal field rate, 6.25 lb ai/A) was 90%, the IC50 [2] was 0.0001 M and the “Fold-resistance (R/S)” value [3] was 100.

`Cc1ccn2nc(S(=O)(=O)Nc3c(F)cccc3F)nc2n1` [Broadstrike] was tested, and the “injury to S-XANST” value ([4]; 0.01 lb ai/A) was “greater than 95%”, the “injury on R-XANST” value ([1]; 6 lb ai/A) was 25% and the IC50 [2] was 0.0006 M. The “Fold-resistance (R/S)” value [3] was 10,000.

With `COc1nc(C)nc(NC(=O)NS(=O)(=O)c2ccccc2Cl)n1` [Chlorsulfurson, 2-chloro-N-[[CH-methoxy-6-methyl-1,3,5-triazin-2-yl-amino]carbonyl]benzenesulfonamide] the “injury to R-XANST” value ([1]; 1.56 lb ai/A, 100 times field use) was 88%, the IC50 [2] was 5e-05 M and the “Fold-resistance (R/S)” value [3] was 6,250.

With `COc1cc(OC)nc(C(=O)c2c(Cl)ccc(Cl)c2C(=O)O)n1` [Di-Cl benzoate] the IC50 [2] was 0.0006 M and the “Fold-resistance (R/S)” value [3] was 2,200.

For `CC(C)C1(C)N=C(c2nc3ccccc3cc2C(=O)O)NC1=O` (stereo not drawn) [Imazaquin, 2-[4,5-dihydro-4-methyl-4-(1-methylethyl)-5-oxo-1H-imidazole-2-yl]-3-quinolinecarboxylic acid], the IC50 [2] was 0.0001 M and the “Fold-resistance (R/S)” value [3] was 250.

In the case of `CC(C)C[C@H](N)C(=O)O` [Leucine], the IC50 [2] is reported as 0.001 M and the “Fold-resistance (R/S)” value [3] is reported as 1.

For `COc1cc(OC)nc(C(=O)c2c(Cl)ccc(Cl)c2C(=O)O)n1` [SAN 2, 3-6-Dichloro-2-[(4,6-dimethoxy-2-pyrimidinyl)carbonyl]benzoic acid, isopropyl ammonium salt], the “injury to S-XANST” value ([4]; 0.1 lb ai/A, 2-3 leaf stage, 21 days after application) was “greater than 95%” and the “injury to R-XANST” value ([1]; 30 lb ai/A, 21 days after application) was at most 50%.

With `COc1cc(OC)nc(Sc2cccc(Cl)c2C(=O)O)n1` [Staple] the “injury to S-XANST” value ([4]; 0.03 lb ai/A, 21 days after application) was “greater than 90%” and the “injury to R-XANST” value ([1]; highest test rate, 9.0 lb ai/A) was at most 55%.

For Picolinate, the IC50 [5] was 9e-08 M, the IC50 [2] was 0.001 M and the “Fold-resistance (R/S)” value [3] was 1,100.

B1: acetolactate synthase (ALS), resistant enzyme from R-XANST (Xanthium sp.) (protein)
chain: T1 sequence (Q41716 78-648)
notes: mature chloroplast form
B1 showed a Km [6] of 6 mM.
